The text below walks through data of US20230338347A1, “New Use of Inhibitors of the Notch Signalling Pathway” (Cellestia Biotech AG, priority 2020, published 2023).

A short description of data set [1]: Phase I/IIA study: pharmacokinetics after oral administration. It is filed as in vivo, human. An excerpt: This […] study is an ongoing first-in-human, open-label study investigating the safety, tolerability, pharmacokinetics (PK), pharmacodynamics (PD) and preliminary efficacy of the pan-NOTCH inhibitor 6-(4-Tert-Butylphenoxy)Pyridin-3-Amine in adult patients with locally advanced or metastatic solid tumours or hematologic malignancies.
The study is designed as an open label, non-randomised, uncontrolled […] dose escalation study with expansion cohorts of 6-(4-Tert-Butylphenoxy)Pyridin-3-Amine administered orally on a once-daily schedule, based on a 28-day treatment cycle. The dosing will be 15, 30, 60, 120, 170, 250, 400, or 600 mg of the 6-(4-Tert-Butylphenoxy)Pyridin-3-Amine monohydrochloride salt or higher per day or alternatively 20, 40, 60, 120, 170, 250, 400, or 600 mg of the 6-(4-Tert-Butylphenoxy)Pyridin-3-Amine monohydrochloride salt or higher per day. Dosing of 15, 30, 60, 120, 170, 250, 400, or 600 mg of the 6-(4-Tert-Butylphenoxy)Pyridin-3-Amine monohydrochloride salt corresponds to dosing of 13, 26, 52, 104, 148, 217, 348, or 522 mg of 6-(4-Tert-Butylphenoxy)Pyridin-3-Amine (free base). Dosing of 20, 40, 60, 120, 170, 250, 400, or 600 mg of the 6-(4-Tert-Butylphenoxy)Pyridin-3-Amine monohydrochloride salt corresponds to dosing of 17, 35, 52, 104, 148, 217, 348, or 522 mg of 6-(4-Tert-Butylphenoxy)Pyridin-3-Amine (free base). For this study, 6-(4-Tert-Butylphenoxy)Pyridin-3-Amine monohydrochloride salt was formulated into a capsule having a drug load of 5, 10, 20, 50 and 100 mg, respectively intended to be administered orally. • Patients will meet the following criteria:
6-(4-Tert-Butylphenoxy)Pyridin-3-Amine is rapidly absorbed after oral administration and reaches Cmax within 1 to 2 hours of dosing. […] The elimination half-life is approximately 20 hours and 6-(4-Tert-Butylphenoxy)Pyridin-3-Amine accumulates about 2-fold with repeated daily administration.

The test system of data set [2] is DTX-1 (Deltex E3 Ubiquitin Ligase 1). As to the kind of experiment: Compassionate use T-ALL patient: DTX-1 gene expression by RTqPCR. The format is in vivo, human. The settings on record: at C2D15; time-dependent; target dose 500 mg once daily. Here is the method:
DTX-1 is a positive regulator of NOTCH signalling pathway (C1D01_pre: Cycle 1 Day 1 predose; C1D01_1 h: Cycle 1 Day 1 1 hour post dose; C1D21_1 h: Cycle 1 Day 21 1 hour post dose; C2D15_1 h: Cycle 2 Day 15 1 hour post dose).
Administration of 6-(4-Tert-Butylphenoxy)Pyridin-3-Amine induced a potent time-dependent downregulation of DTX-1 (Deltex E3 Ubiquitin Ligase 1) up to 95% at C2D15, indicative of NOTCH pathway downregulation. DTX-1 is a positive regulator of NOTCH signalling pathway
Blood samples for PBMCs and cytokine analysis were collected using BD Vacutainer® Evacuated Blood Collection Tubes, and immediately centrifuged to separate the cell and plasma compartments for further analysis. Gene expression profiling was performed by standard RTqPCR. Cytokine analysis in the plasma compartment was performed with a standard commercially available ELISA method.

Turning to `CC(C)(C)c1ccc(Oc2ccc(N)cn2)cc1` [6-(4-Tert-Butylphenoxy)Pyridin-3-Amine], the “time to steady state concentrations” value in data set [1] (daily dosing) is given as “within one week”. For the same compound, in data set [1] (human, plasma, after oral administration, read-out: time to reach Cmax), the Tmax lay in the range of 1 to 2 h. Besides, in data set [1] (human, plasma, oral, read-out: elimination half-life (converted)), the half-life – broadly, the time needed for the level to fall by half in the phase considered – is around 20 h. For the same compound, the “accumulation with repeated daily administration” value in data set [1] (oral, daily) was “about 2 fold”. Besides, in data set [1] (oral, dose range tested), the “plasma exposure versus dose” value is listed as “increases with increasing doses” and the saturation of absorption entry is “no signs of saturated absorption”. Moreover, in data set [2], the “downregulation of DTX-1” value is “up to 95%”.
